40 compounds from PubChem BioAssay (NCI) can be followed below.

“And” between values parts separate entries of the source, which are not always exact repeats. Identical values can stand only once.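 Five concentrations, 48 hours, 96-well plates. At the GI50, growth is halved. At the TGI there is no net growth.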

The assay relates to MDA-MB-468 breast. Description: NCI anticancer screen, dose series, 48 h.
With `CCc1ccc(CCC(=O)Nc2ncc(Cc3ccc(Cl)cc3)s2)o1`, the GI50 was 0.342 µM.

For `CC1=C(c2ccccc2)C(O)(c2ccccc2)C(C)C1=O` (centres undefined), the GI50 is 4.28 µM and the TGI stood at 40.3 µM.

With `Nc1ccc(C2=CC(c3ccc(Cl)cc3)N3C=CSC3=N2)cc1` (centres undefined), the GI50 was 1.9 µM and the TGI is 4.29 µM.

On to `CCC(C)[C@H](NC(=O)Nc1cc(C(F)(F)F)cc(C(F)(F)F)c1)C(=O)N[C@@H](Cc1cn(C)cn1)C(=O)OC` (some centres undefined), for which the GI50 is 0.476 µM and the TGI came to 0.971 µM.

With `CCCCCCCCCCCCCCCCCCn1cc[n+](C)c1`, the GI50 was 0.215 µM and the TGI is 1.64 µM.

As to `CC1=C2[C@@H](CC1)[C@]1(C)O[C@@](C(C)C)(C[C@H]1OC(=O)CO)[C@H]2OC(=O)C1CC1c1ccccc1` (some centres undefined), the GI50 was 13.2 µM and the TGI came out at 29.5 µM.

As to `CCC(C)Nc1ccc(N)cc1` (centres undefined), the GI50 is 2.05 µM and the TGI is 6.51 µM.

On to `Cc1ccccc1NC(=O)c1sc2nc(C)c(C(=O)/C=C/c3ccccc3)cc2c1N`, for which the GI50 is 0.927 µM and the TGI is 1.82 µM.

`NC(=O)c1cc([N+](=O)[O-])c(Cl)c([N+](=O)[O-])c1Cl`: the GI50 is 0.188 µM and the TGI worked out at 0.436 µM.

`Cc1ccc(/C=N/Nc2nc(Nc3ccccc3)nc(-n3nc(C)cc3C)n2)cc1`: the GI50 was 3.63 µM and the TGI turned out to be 17.1 µM.

Turning to `COC12C=C/C(=C(/C(=O)OCc3ccccn3)C(=O)CCCCCCCCC3(OC)C=C/C(=C(/C(=O)OCc4ccccn4)C(=O)CCCCCCCC1)O3)O2`, the GI50 was 0.314 µM and the TGI worked out at 1.15 µM.

Take `CCN(Cc1ccccc1)C1CCN(Cc2cc(Br)ccc2O)CC1`: the GI50 is 15.1 µM and the TGI came out at 40.8 µM.

For `COc1cc(Nc2ncc(-c3ccccc3)o2)cc(OC)c1`, the GI50 is 7.94 µM and the TGI was greater than 25 µM.

In the case of `COc1ccc(C/C(=C(\C)c2ccc(OCCN3CCCC3)cc2)c2ccc(OCCN3CCCC3)cc2)cc1`, the GI50 was 1.62 µM and the TGI came to 3.14 µM.

In the case of `CNC(=O)c1c(NC(=O)c2ccc(C(C)(C)C)cc2)sc2c(CN(C)C)c(O)ccc12`, the GI50 was 1.67 µM and the TGI amounted to 3.36 µM.

On to `COc1cc(/C=C/C(=O)/C=C/c2ccc(-n3ccnc3C)cc2)ccc1O`, for which the GI50 is 2.06 µM and the TGI came to 4.72 µM.

With `COc1ccc2c(c1)c(-c1nc(-c3c[nH]c4ccncc34)cs1)cn2C`, the GI50 is 0.442 µM and the TGI stood at 1.85 µM.

Regarding `COC(=O)[C@H](Cc1cnc[nH]1)NC(=O)[C@@H](NC(=O)Nc1cc(C(F)(F)F)cc(C(F)(F)F)c1)C(C)C`, the GI50 was 11.1 µM and the TGI came out at 25.6 µM.

On to `COc1cccc(CC(C)=C(c2ccc(OCCN3CCCCC3)cc2)c2ccc(OCCN3CCCCC3)cc2)c1`, for which the GI50 is 0.641 µM and the TGI worked out at 2.71 µM.

Take `CC1=C(SCCC(=O)OC(C[Se]C2=C(C)C(=O)c3ccccc3C2=O)C(=O)NCCCCCC(=O)OCc2ccccc2)C(=O)c2ccccc2C1=O` (centres undefined): the GI50 is 3 µM and the TGI was 8.54 µM.

For `O=C(Nc1ccccc1)Nc1ccc2cc3ccc(NC(=O)Nc4ccccc4)cc3nc2c1`, the GI50 is 0.579 µM and the TGI stood at 1.92 µM.

`CC(C)(C)c1ccc(Oc2ccc(N)cn2)cc1`: the GI50 was 28.3 µM and the TGI is greater than 100 µM.

In the case of `Cc1cccc2nc3ccccc3c(Nc3ccc(NS(C)(=O)=O)cc3)c12`, the GI50 was 8.53 µM and the TGI was 26.3 µM.

As to `COc1ccc2c(c1)[nH]c(=O)c1c3cccc(F)c3cn21`, the GI50 was 0.187 µM and the TGI stood at 0.487 µM.

Consider `NCCCC[C@@H]1NC(=O)[C@H](CC(=O)O)NC(=O)CNC(=O)[C@H](CCCN=C(N)N)NC(=O)[C@@H](N)CSSC[C@@H](C(=O)O)NC(=O)[C@H](CC(=O)O)NC(=O)[C@@H]2CCCN2C(=O)CNC1=O`, for which the GI50 was greater than 100 µM and the TGI is greater than 100 µM.

As for `COc1cc(/C=N/Nc2ncnc3c2cnn3-c2ccccc2)ccc1O`, the GI50 is 4.93 µM and the TGI is greater than 25 µM.

As for `CNC(=O)c1c(NC(=O)c2ccc(C(C)(C)C)cc2)sc2c1CCC(=O)C2`, the GI50 was 0.411 µM and the TGI stood at 2.07 µM.

As to `COc1ccc(CN2c3ccccc3Sc3ccccc32)c(C(F)(F)F)c1`, the GI50 is 0.275 µM and the TGI was found to be 13.6 µM.

For `CC(N)(Cc1c[nH]c2cccc(F)c12)C(=O)O` (centres undefined), the GI50 is greater than 1000 µM and the TGI is greater than 1000 µM.

As to `CCOC(=O)Oc1cc2c(c(OC)c1OC)-c1ccc(OC)c(=O)cc1C(NC(C)=O)CC2` (centres undefined), the GI50 is less than 0.01 µM and the TGI was greater than 100 µM.

Regarding `COc1ccc2c(c1OC)CO[C@@H]2[C@H]1c2c(cc3c(c2OC)OCO3)CCN1S(=O)(=O)c1cn(C)cn1`, the GI50 is 0.324 µM and the TGI is 5.93 µM.

Turning to `O=C(N/N=C\c1ccc(N(CCCl)CCCl)cc1[N+](=O)[O-])c1cccnc1`, the GI50 was greater than 100 µM and the TGI is greater than 100 µM.

As for `COc1cc(OC)cc(-c2n/c(=C\c3c(O)[nH]c4ccc(OC)cc34)cc3c2=Nc2ccccc2-3)c1`, the GI50 was 12.1 µM and the TGI was 29.8 µM.

Consider `CCN(CC)CCCNc1cc(OC)cc2nc3cc(Cl)ccc3nc12`, for which the GI50 is 1.15 µM and the TGI is 2.67 µM.

In the case of `CC1(C)CNc2cc(NC(=O)c3cccnc3NCc3ccncc3)ccc21`, the GI50 is 12.7 µM and the TGI came to 66.2 µM.

On to `COc1ncc(Nc2ncc([C@@H](C)N3CCN(S(C)(=O)=O)CC3)cc2-c2nc(C)nc(N)n2)cc1F`, for which the GI50 was less than 0.0148 µM and the TGI was found to be 0.16 µM.

Consider `Nc1nc([Se])c2ncn(C3OC(CO)C(O)C3O)c2n1` (centres undefined), for which the GI50 is 50.2 µM and the TGI was greater than 100 µM.

Take `CNC(=O)c1cc(Oc2ccc(NC(=O)Nc3ccc(Cl)c(C(F)(F)F)c3)c(F)c2)ccn1`: the GI50 was 2.06 µM and 1.67 µM; the TGI is 5.58 µM and 7.93 µM.

For the compound `COCc1c(-c2cc3cc(C)cc(OC)c3s2)c2c(N)ncnn2c1CN1CCNC(=O)C1`, the GI50 was 1.76 µM and the TGI was 7.46 µM.

Regarding `CC1C(C)N(C(=O)CCl)c2ccccc2N1C(=O)CCl` (centres undefined), the GI50 was 0.296 µM and the TGI came out at 1.21 µM.
